Assay results as given in article PMC9436819 (JACC: Basic to Translational Science, 2022).
“Also recorded” adds a separate entry of the source. Where two headings read alike, the source gives them in different places.

Legend:
[1] = Plasma pharmacokinetics after single oral doses (SAD cohorts); type: in vivo, human; conditions: for half-life / Cmax / AUC / Tmax / AUC(0-inf) / Vd/F: human, plasma; for half-life: po; for AUC: read-out: AUC24; for Vd/F: read-out: Vz/F
Procedure: The SAD portion of the study used a randomized, double-blind, placebo-controlled, sequential, escalating dose design, in which participants received single ascending oral doses of the study drug. Seven cohorts were dosed in sequence (Figure 1).
For all study groups, blood samples for PK assessment were obtained predose, up to 12 times daily on day 1, and then at regular intervals throughout the study (see Supplemental Appendix for details). Standard noncompartmental methods were used to calculate PK parameters using Phoenix WinNonlin, version 7.0; actual sample collection times were used.
Statistical A nalysis of P harm acokinetic (PK) P aram eters
The PK analyses w ere int ended to assess single- dose kinetics, multiple-dose (steady state) […]
and the influence of food on the absorption and eli mination of aficamten.
For the SAD cohort, dos e proportionality of afi camten was evaluat ed using a power model on […]
and day 14 or 17. Several considerations were taken into account when assessing dose proportionality of the drug, such as results derived from the power model statistical analysis (e.g., the slope estimate and width of the 2- sided 95% confidence intervals [CIs ]), qualitative assessment specific to th e PK of the drug, and clinical relev ance. For th e SAD cohort, the […]
time curve (A UC)from time 0 to the time of the last measurable concentration(AUC last), AUC […]
plasma concent ration ( C max). […]
The statistical linear relationship between the ln-transformed PK parameters and the ln-transformed dos e was verified by including the quadratic (ln Dos e)2 and cubic (ln Dose) 3 effects.
The statistical linear relationship was established if the quadratic and cubi c effects were not […]
significant, but of such small magnitude that they were not clinically relevant. The dose-proportionality analysis was performed using SAS® PROC MIXED.

rat and dog = conditions: cited from earlier work
[2] = single oral dose 1 mg, geometric mean (geometric CV%), n = 6
[3] = single oral dose 3 mg, geometric mean (geometric CV%), n = 6
[4] = single oral dose 3 mg, mean ± SD, n = 5
[5] = single oral dose 10 mg, mean ± SD, n = 4
[6] = single oral dose 25 mg, geometric mean (geometric CV%), n = 6
[7] = single oral dose 25 mg, mean ± SD, n = 6
[8] = single oral dose 40 mg, geometric mean (geometric CV%), n = 6
[9] = single oral dose 40 mg, mean ± SD, n = 5
[10] = single oral dose 50 mg, geometric mean (geometric CV%), n = 11
[11] = single oral dose 50 mg, mean ± SD, n = 9

## CCc1nc(-c2ccc3c(c2)CC[C@H]3NC(=O)c2cnn(C)c2)no1 [Aficamten]
[1]; 3 mg, single oral dose 3 mg, mean ± SD, n = 5, read-out: t1/2 (converted)
  half-life: 75.1 ± 21.8 h
[1]; 10 mg, single oral dose 10 mg (extensive metabolizers), mean ± SD, n = 4, read-out: t1/2 (converted)
  half-life: 85 h
[1]; 25 mg, single oral dose 25 mg, mean ± SD, n = 6, read-out: t1/2 (converted)
  half-life: 79.8 ± 10 h
[1]; 40 mg, single oral dose 40 mg, mean ± SD, n = 4, read-out: t1/2 (converted)
  half-life: 79.2 ± 18.5 h
[1]; 50 mg, single oral dose 50 mg, mean ± SD, n = 9, read-out: t1/2 (converted)
  half-life: 80.4 ± 14.9 h
[1]; single oral doses, read-out: Mean half-life, range across single-dose cohorts
  half-life: 75 to 85 h
[1]; [2]
  Cmax: 5.8 ng/mL
  AUC: 50 ng·h/mL
[1]; single oral dose 1 mg, median (range), n = 6, read-out: Tmax
  Tmax: 1 h
[1]; single oral dose 3 mg, geometric mean (geometric CV%), n = 5
  AUC(0-inf): 823 ng·h/mL
[1]; [3]
  Cmax: 26.1 ng/mL
  AUC: 174 ng·h/mL
[1]; [4]
  Vd/F: 393 ± 122 L
  CL/F: 4.2 ± 3.1 L/h
[1]; single oral dose 3 mg, median (range), n = 6, read-out: Tmax
  Tmax: 1.3 h
[1]; single oral dose 10 mg (extensive metabolizers), geometric mean (geometric CV%), n = 6
  AUC: 679 ng·h/mL
[1]; single oral dose 10 mg, geometric mean (geometric CV%), n = 4
  AUC(0-inf): 3430 ng·h/mL
[1]; single oral dose 10 mg, geometric mean (geometric CV%), n = 6
  Cmax: 70.5 ng/mL
[1]; [5]
  Vd/F: 362 ± 108 L
  CL/F: 3.0 ± 0.7 L/h
[1]; single oral dose 10 mg, median (range), n = 6, read-out: Tmax
  Tmax: 2.8 h
[1]; [6]
  AUC(0-inf): 7110 ng·h/mL
  Cmax: 193 ng/mL
  AUC: 1490 ng·h/mL
[1]; [7]
  Vd/F: 405 ± 56.6 L
  CL/F: 3.6 ± 0.5 L/h
[1]; single oral dose 25 mg, median (range), n = 6, read-out: Tmax
  Tmax: 1.8 h
[1]; single oral dose 40 mg, geometric mean (geometric CV%), n = 5
  AUC(0-inf): 11900 ng·h/mL
[1]; [8]
  Cmax: 383 ng/mL
  AUC: 2530 ng·h/mL
[1]; [9]
  Vd/F: 382 ± 66.9 L
  CL/F: 3.4 ± 0.6 L/h
[1]; single oral dose 40 mg, median (range), n = 6, read-out: Tmax
  Tmax: 1 h
[1]; single oral dose 50 mg, geometric mean (geometric CV%), n = 9
  AUC(0-inf): 13700 ng·h/mL
[1]; [10]
  Cmax: 359 ng/mL
  AUC: 2830 ng·h/mL
[1]; [11]
  Vd/F: 431 ± 123 L
  CL/F: 3.8 ± 1.1 L/h
[1]; single oral dose 50 mg, median (range), n = 11, read-out: Tmax
  Tmax: 1 h
[1]; single oral dose 75 mg, median (range), n = 1, read-out: Tmax
  Tmax: 0.5 h
[1]; single oral dose 75 mg, n = 1
  Cmax: 1220 ng/mL
  AUC: 4560 ng·h/mL
[1]; single oral doses 1 to 75 mg, read-out: Median time to reach peak concentrations, range across doses
  Tmax: 0.5 to 2.76 h
[1]; single oral dose 10 mg (extensive metabolizers), mean ± SD, n = 4
  t1/2: 84.7 ± 17.7 h
[1]; single oral doses
  Maximum time to maximum observed concentration across all participants: 4.0 h
[1]; single oral doses 1 to 50 mg
  Dose proportionality of Cmax and exposure: dose-proportional; also recorded: dose proportionality; also recorded: linear kinetics
Rat and dog; comparison in rats and dogs
  Exposure-response relationship shallower than that of mavacamten: roughly 3 fold
Rat and dog; rat and dog
  Ventricular contractility: reduces ventricular contractility in a dose- and exposure-dependent manner
